Some test systems named below: A549 NSCLC; BT-549 breast; CCRF-CEM leukemia; COLO 205 colon; IGROV1 ovarian; K-562 leukemia; MALME-3M melanoma; MDA-MB-435; NCI-H226 lung; SK-MEL-2 melanoma.
What all share (assay): NCI anticancer screen, dose series, 48 h

“And” between values parts separate entries of the source, which are not always exact repeats. Equal entries are not always repeated.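 Interpolation was linear, between the two tested concentrations surrounding the appropriate level; five concentrations were tested over 48 hours in 96-well plates. The concentration for 50% growth inhibition is given as GI50. At the TGI there is no net growth.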 Bounds are passed on as bounds.

With `N#Cc1cccc(C2C3=C(COC3=O)N(CCO)c3cc4c(cc32)CCC4)c1` (centres undefined), the GI50 was 0.23 µM in the assay on A549 NSCLC; 0.182 µM with BT-549 breast; 0.187 µM in the assay with CCRF-CEM leukemia; 0.146 µM in the assay with COLO 205 colon; 0.172 µM in the assay with IGROV1 ovarian; 0.0732 µM with K-562 leukemia. For the same molecule, the GI50 with MALME-3M melanoma is 0.173 µM; with MDA-MB-435, 0.0171 µM; with NCI-H226 lung, 1.67 µM; in the assay on SK-MEL-2 melanoma it was 0.319 µM. Besides, the TGI in the assay on A549 NSCLC is above 50 µM; with BT-549 breast it was 5.35 µM; with CCRF-CEM leukemia, above 50 µM; in the assay on COLO 205 colon it was 1.28 µM; in the assay with IGROV1 ovarian, above 43.8 µM; in the assay on K-562 leukemia it was above 50 µM. Also, the TGI in the assay on MALME-3M melanoma is above 50 µM; in the assay on MDA-MB-435, 0.0662 µM; with NCI-H226 lung, above 50 µM; in the assay with SK-MEL-2 melanoma, above 44.5 µM.
Take `CCN(CC)C(=O)CCCCCn1c2ccccc2c2c3c(c4c5ccccc5[nH]c4c21)C(=O)N(O)C3=O`: the GI50 is 21.8 µM in the assay on A549 NSCLC; 4.66 µM in the assay with BT-549 breast; 3.07 µM in the assay with CCRF-CEM leukemia; 1.97 µM in the assay with COLO 205 colon; 2.41 µM in the assay on IGROV1 ovarian; 4.18 µM with K-562 leukemia. In addition, the GI50 is 8.2 µM with MALME-3M melanoma, 4.04 µM in the assay on MDA-MB-435, 14.1 µM in the assay with NCI-H226 lung and 3.38 µM in the assay on SK-MEL-2 melanoma. Further, the TGI is 98.4 µM with A549 NSCLC; 48.5 µM in the assay with BT-549 breast; 21.9 µM in the assay on CCRF-CEM leukemia; 4.23 µM in the assay with COLO 205 colon; 6.87 µM with IGROV1 ovarian; above 100 µM in the assay on K-562 leukemia. Besides, the TGI with MALME-3M melanoma stood at 65.7 µM; with MDA-MB-435, 40 µM; with NCI-H226 lung it was 54.4 µM; in the assay on SK-MEL-2 melanoma it was 12.1 µM.
With `Nc1ccn([C@@H]2S[C@H](CO)[C@@H](O)[C@@H]2F)c(=O)n1`, the GI50 is 0.161 µM with A549 NSCLC; 1.74 µM in the assay with BT-549 breast; below 0.01 µM with CCRF-CEM leukemia; 0.407 µM in the assay on COLO 205 colon; 0.74 µM in the assay with IGROV1 ovarian; 0.23 µM with K-562 leukemia. Moreover, the GI50 in the assay with MALME-3M melanoma is 1.52 µM; in the assay on MDA-MB-435, 0.18 µM; in the assay with NCI-H226 lung it was 0.485 µM; in the assay on SK-MEL-2 melanoma, above 100 µM. The TGI in the assay with A549 NSCLC, in the assay with BT-549 breast, in the assay on CCRF-CEM leukemia, in the assay with COLO 205 colon, in the assay with IGROV1 ovarian and in the assay with K-562 leukemia was above 100 µM throughout. The TGI is above 100 µM in the assay with MALME-3M melanoma, above 100 µM with MDA-MB-435, above 48.4 µM in the assay with NCI-H226 lung and above 100 µM in the assay on SK-MEL-2 melanoma.
With `CC/C(=C(/c1ccc(/C=C/C(=O)O)cc1)c1ccc2[nH]ncc2c1)c1ccc(F)cc1Cl`, the GI50 is 8.58 µM with A549 NSCLC; 7.79 µM in the assay with BT-549 breast; 8.37 µM in the assay on CCRF-CEM leukemia; 15.5 µM with COLO 205 colon; 15.8 µM in the assay with IGROV1 ovarian; 12.1 µM in the assay with K-562 leukemia. In addition, the GI50 with MALME-3M melanoma was 18.6 µM; with MDA-MB-435 it was 2.76 µM; in the assay on NCI-H226 lung, 19.3 µM; in the assay with SK-MEL-2 melanoma, 10.2 µM. The TGI amounted to 25.1 µM in the assay with A549 NSCLC; 22.7 µM in the assay with BT-549 breast; 30.7 µM in the assay with CCRF-CEM leukemia; 35.3 µM in the assay with COLO 205 colon; 40 µM in the assay with IGROV1 ovarian; 41 µM with K-562 leukemia. Also, the TGI in the assay with MALME-3M melanoma stood at 44.9 µM; in the assay on MDA-MB-435 it was 8.38 µM; with NCI-H226 lung, 47.6 µM; with SK-MEL-2 melanoma it was 27 µM.
For `N=C(N)c1ccc(OCCCCCOc2ccc(C(=N)N)cc2)cc1`, the GI50 was 0.83 µM in the assay with A549 NSCLC; 6.65 µM and 3.41 µM and 11.1 µM in the assay on BT-549 breast; 23.7 µM and 11.1 µM and 45.1 µM in the assay on CCRF-CEM leukemia; 2.18 µM and 5.19 µM and 11.9 µM in the assay with COLO 205 colon; 10.2 µM and 13 µM and 35.5 µM in the assay with IGROV1 ovarian; 2.8 µM with K-562 leukemia. Further, the GI50 in the assay with MALME-3M melanoma is 1.81 µM; with MDA-MB-435, 3.99 µM; in the assay on NCI-H226 lung, 5.24 µM and 6.96 µM and 14.2 µM; in the assay on SK-MEL-2 melanoma, 7.11 µM. Also, the TGI with A549 NSCLC was > 50 µM and 37.1 µM and > 100 µM; in the assay with BT-549 breast it was 14.1 µM and 16 µM and 25.3 µM; in the assay with CCRF-CEM leukemia, > 50 µM and 60.1 µM and > 100 µM; in the assay with COLO 205 colon, 8.57 µM and 18.4 µM and 29.1 µM; in the assay with IGROV1 ovarian, > 50 µM and 27 µM and > 100 µM; in the assay on K-562 leukemia, 32.7 µM and 15.4 µM and > 100 µM. Also, the TGI was 8.4 µM and 35.3 µM with MALME-3M melanoma; 13.4 µM and 23.2 µM and 42.9 µM in the assay with MDA-MB-435; > 50 µM and 30.2 µM and 58.8 µM in the assay with NCI-H226 lung; 16.9 µM and 47.1 µM and 22.4 µM with SK-MEL-2 melanoma.
Take `CN(C)CCS(=O)(=O)Nc1cc(-c2ccc3ncnc(Nc4ccc(F)c(Cl)c4)c3c2)cnc1Cl`: the GI50 in the assay with A549 NSCLC is 0.803 µM; with BT-549 breast, 0.24 µM; in the assay with CCRF-CEM leukemia, 0.322 µM; with COLO 205 colon, 0.748 µM; with IGROV1 ovarian it was 0.0859 µM; in the assay on K-562 leukemia it was 2.95 µM. The GI50 with MALME-3M melanoma was 0.114 µM; in the assay with MDA-MB-435, 0.713 µM; with NCI-H226 lung it was 2.11 µM; in the assay with SK-MEL-2 melanoma it was 0.715 µM. Moreover, the TGI was 3.26 µM in the assay on A549 NSCLC; 1.38 µM in the assay on BT-549 breast; above 37 µM in the assay on CCRF-CEM leukemia; 2.22 µM with COLO 205 colon; 0.38 µM in the assay on IGROV1 ovarian; above 54.5 µM with K-562 leukemia. Also, the TGI with MALME-3M melanoma is 0.666 µM; in the assay with MDA-MB-435 it was 3.04 µM; with NCI-H226 lung it was above 100 µM; in the assay on SK-MEL-2 melanoma, 2.74 µM.
Regarding `O=C(O)Cn1ccc(=O)c2c([N+](=O)[O-])cccc21`, the TGI in the assay on A549 NSCLC, in the assay on BT-549 breast, in the assay with CCRF-CEM leukemia, with COLO 205 colon, with IGROV1 ovarian and in the assay with K-562 leukemia was above 100 µM each time. Moreover, the TGI in the assay on MALME-3M melanoma, in the assay with MDA-MB-435, in the assay with NCI-H226 lung and in the assay with SK-MEL-2 melanoma was above 100 µM throughout.
Take `Cc1ccc(C(=O)N2C/C(=C/c3ccccc3)C(=O)/C(=C/c3ccccc3)C2)cc1`: the GI50 in the assay with A549 NSCLC is 63.3 µM; in the assay on BT-549 breast it was 3.42 µM; with CCRF-CEM leukemia, 2.23 µM; in the assay with COLO 205 colon it was 8.7 µM; in the assay on IGROV1 ovarian it was 12.8 µM; with K-562 leukemia, 1.66 µM. The GI50 with MALME-3M melanoma is 30.6 µM; with MDA-MB-435, 1.01 µM; with SK-MEL-2 melanoma it was above 62.8 µM. Besides, the TGI in the assay with A549 NSCLC was above 100 µM; in the assay with BT-549 breast it was 15.8 µM; with CCRF-CEM leukemia, above 100 µM; with COLO 205 colon, above 100 µM; with IGROV1 ovarian it was above 100 µM; in the assay with K-562 leukemia, above 100 µM. Besides, the TGI is above 100 µM in the assay on MALME-3M melanoma, 6.41 µM in the assay with MDA-MB-435, above 100 µM in the assay on NCI-H226 lung and above 100 µM in the assay with SK-MEL-2 melanoma.
Take `C=CC[PH+](c1ccccc1)c1ccccc1.C=CC[PH+](c1ccccc1)c1ccccc1.[Pt+2].[S-]c1ncccn1.[S-]c1ncccn1`: the GI50 in the assay on A549 NSCLC is 26.3 µM; in the assay with BT-549 breast, 25.1 µM; in the assay with CCRF-CEM leukemia, 3.17 µM; in the assay on COLO 205 colon it was 5.24 µM; in the assay on IGROV1 ovarian it was 15.1 µM; with K-562 leukemia it was 2.99 µM. Further, the GI50 in the assay on MALME-3M melanoma is 2.5 µM; in the assay on MDA-MB-435, 16.3 µM; in the assay with NCI-H226 lung, 16.6 µM; in the assay with SK-MEL-2 melanoma it was 47.4 µM. Also, the TGI in the assay with A549 NSCLC is above 100 µM; in the assay on BT-549 breast it was above 100 µM; with CCRF-CEM leukemia, above 100 µM; in the assay with COLO 205 colon, 26.9 µM; with IGROV1 ovarian it was 43.8 µM; with K-562 leukemia it was above 100 µM. For the same molecule, the TGI is 10.4 µM with MALME-3M melanoma, 33.8 µM in the assay on MDA-MB-435, 39.9 µM in the assay with NCI-H226 lung and above 100 µM in the assay on SK-MEL-2 melanoma.
With `COC(=O)C1=Nc2ccc(F)cc2/C1=C/c1sc(=S)[nH]c1O`, the GI50 was 0.254 µM with A549 NSCLC; 0.161 µM in the assay with BT-549 breast; 0.133 µM in the assay with CCRF-CEM leukemia; 0.311 µM in the assay on COLO 205 colon; 0.275 µM in the assay on IGROV1 ovarian; 0.045 µM with K-562 leukemia. Also, the GI50 in the assay on MALME-3M melanoma is 0.191 µM; in the assay on MDA-MB-435 it was 0.0233 µM; with NCI-H226 lung it was 0.959 µM; in the assay on SK-MEL-2 melanoma, 0.806 µM. Also, the TGI in the assay on A549 NSCLC was above 100 µM; with BT-549 breast, 3.31 µM; with CCRF-CEM leukemia, above 100 µM; in the assay on COLO 205 colon it was 1.24 µM; in the assay on IGROV1 ovarian it was 14.9 µM; in the assay on K-562 leukemia, above 100 µM. For the same molecule, the TGI with MALME-3M melanoma was found to be 29 µM; in the assay on MDA-MB-435 it was 0.0605 µM; with NCI-H226 lung, 10.3 µM; with SK-MEL-2 melanoma, 41 µM.
